The text below walks through data of patent US8470828B2, “Anellated pyridine compounds” (Hoffmann-La Roche Inc., priority 2010, dated 2013).

One series addresses T1, human D2 receptor (Homo sapiens, UniProt P14416).
T1 construct: expressed in transfected cells; host or cells: HEK293 EBNA cells, transient transfection; membrane preparation
Description: Radioligand binding to cloned human D2 receptor expressed in HEK-293 EBNA cells ([3H]-spiperone). Particulars: HEK293 EBNA cell membranes, approximately 0.7 nM [3H]-spiperone, 1 h at RT.

The next series concerns the target human D3 receptor (Homo sapiens, UniProt P35462). Description: Radioligand binding to cloned human D3 receptor expressed in HEK-293 EBNA cells ([3H]-spiperone).
The next series has as its target human 5-HT2A receptor (Homo sapiens, UniProt P28223). Description: Radioligand binding to cloned human 5-HT2A receptor expressed in HEK-293 EBNA cells ([3H]-ketanserin).

T1 sequence (P14416 whole entry): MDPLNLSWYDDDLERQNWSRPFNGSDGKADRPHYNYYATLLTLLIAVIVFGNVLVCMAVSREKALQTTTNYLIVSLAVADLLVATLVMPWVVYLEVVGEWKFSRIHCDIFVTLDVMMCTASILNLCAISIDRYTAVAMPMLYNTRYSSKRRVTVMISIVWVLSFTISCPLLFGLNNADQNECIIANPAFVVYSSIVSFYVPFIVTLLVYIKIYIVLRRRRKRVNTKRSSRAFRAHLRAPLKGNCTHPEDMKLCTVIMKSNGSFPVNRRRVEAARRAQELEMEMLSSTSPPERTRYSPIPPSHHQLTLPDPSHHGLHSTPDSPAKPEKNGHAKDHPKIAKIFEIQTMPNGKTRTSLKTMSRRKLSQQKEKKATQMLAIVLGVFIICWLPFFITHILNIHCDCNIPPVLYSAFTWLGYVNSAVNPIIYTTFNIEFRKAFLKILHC
human 5-HT2A receptor, sequence (P28223 whole entry): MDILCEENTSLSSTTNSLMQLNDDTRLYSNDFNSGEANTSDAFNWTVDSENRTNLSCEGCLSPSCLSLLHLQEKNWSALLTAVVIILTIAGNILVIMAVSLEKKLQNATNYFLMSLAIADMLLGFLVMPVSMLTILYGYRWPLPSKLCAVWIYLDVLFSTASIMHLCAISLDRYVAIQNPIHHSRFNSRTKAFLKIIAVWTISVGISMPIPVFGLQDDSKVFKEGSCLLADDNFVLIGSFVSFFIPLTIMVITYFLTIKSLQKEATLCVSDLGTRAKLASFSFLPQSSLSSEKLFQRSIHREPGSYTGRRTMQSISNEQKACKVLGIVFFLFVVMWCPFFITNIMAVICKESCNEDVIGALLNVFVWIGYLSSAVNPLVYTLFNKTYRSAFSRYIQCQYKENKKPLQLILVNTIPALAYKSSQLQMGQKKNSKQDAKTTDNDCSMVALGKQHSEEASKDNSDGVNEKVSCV
human D3 receptor, sequence (P35462 whole entry): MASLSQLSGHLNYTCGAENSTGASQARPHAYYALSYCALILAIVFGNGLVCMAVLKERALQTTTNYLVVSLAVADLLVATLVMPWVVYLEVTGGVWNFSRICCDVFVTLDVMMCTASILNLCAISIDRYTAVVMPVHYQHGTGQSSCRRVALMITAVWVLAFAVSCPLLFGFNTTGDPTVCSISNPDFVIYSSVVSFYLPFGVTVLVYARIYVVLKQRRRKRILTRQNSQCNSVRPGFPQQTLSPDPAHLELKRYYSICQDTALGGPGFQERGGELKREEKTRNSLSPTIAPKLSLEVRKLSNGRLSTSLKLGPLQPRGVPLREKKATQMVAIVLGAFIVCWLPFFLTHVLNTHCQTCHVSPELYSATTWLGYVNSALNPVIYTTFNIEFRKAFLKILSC
Description for human 5-HT2A receptor: (§1) HEK293 EBNA cells were transiently transfected with expression plasmids encoding for the human D2 or D3 or for the human 5-HT2A receptor, respectively. The cells were harvested 48 h post-transfection, washed three times with cold PBS and stored at −80° C. prior to use. The pellet was suspended in cold 50 mM Tris-HCl buffer comprising 10 mM EDTA (pH 7.4) and was homogenized with a Polytron (Kinematica A G, Basel, Switzerland) for 20-30 sec at 12.000 rpm. After centrifugation at 48.000×g for 30 min at 4° C., the pellet was resuspended in cold 10 mM Tris-HCl buffer comprising 0.1 mM EDTA (pH 7.4), homogenized, and centrifuged as above. This pellet was further resuspended in a smaller volume of ice cold 10 mM Tris-HCl buffer comprising 0.1 mM EDTA (pH 7.4) and homogenized with a Polytron for 20-30 sec at 12.000 rpm. The protein content of this homogenate was determined with the Bio-Rad (Bradford) Protein Assay (Biorad Laboratories GmbH, München, Germany) according to the instructions of the manufacturer using gamma globulin as the standard. This homogenate was stored at −80° C. in aliquots and thawed immediately prior to use.
(§2) Aliquots of membrane preparations were thawed at RT, resupended in assay buffer (D2, D3: 50 mM Tris-HCl, 120 mM NaCl, 5 mM MgCl2, 1 mM EDTA, 5 mM KCl, 1.5 mM CaCl2, pH=7.4; 5-HT2A: 50 mM Tris-HCl, 10 mM MgCl2, 1 mM EGTA, pH=7.4), homogenized with a Polytron for 20-30 sec at 12.000 rpm and adjusted to a final concentration of approximately 7.5 μg protein/well (D2, D3) and 15 μg protein/well (5-HT2A), respectively.
(§3) The binding affinity (Ki) of the compounds was determined using radioligand binding. Membranes were incubated in a total volume of 200 μl with a fixed concentration of radioligand (final concentration approximately 0.7 nM [^3H]-spiperone for D2, 0.5 nM [^3H]-spiperone for D3, and 1.1 nM [^3H]-ketanserin for 5-HT2A) and ten concentrations of test compound in ranging between 10 μM-0.1 nM for 1 h at RT. At the end of the incubation, the reaction mixtures were filtered on to unifilter 96-well white microplates with bonded GF/C filters (Packard BioScience, Zürich, Switzerland; preincubated for 1 h in 0.1% polyethylenimine (PEI) in assay buffer) with a Filtermate 196 harvester (Packard BioScience) and washed 3 times with cold assay buffer. The nonspecific binding was determined with equally composed reaction mixtures in the presence of 10 μM unlabelled spiperone. Per well 45 μl of Microscint 40 (Perkin Elmer, Schwerzenbach, Switzerland) was added, plates for sealed, shaken for 20 min and counted for 3 min on a Topcount Microplate Scintillation Counter (Can berra Packard S A, Zürich, Switzerland) with quenching correction.
(§4) The CPM value for each duplicate of a concentration of competing compound was averaged (y1), then the % specific binding was calculated according to the equation (((y1−non-specific)/(total binding−non-specific))×100). Graphs were plotted with the % specific binding using XLfit, a curve fitting program that iteratively plots the data using Levenberg-Marquardt algorithm. The single site competition analysis equation used was y=A+((B−A)/(1+((x/C)D))), where y is the % specific binding, A is the minimum y, B is the maximum y, C is the IC50, x is the log 10 of the concentration of the competing compound and D is the slope of the curve (the Hill Coefficient). […] The affinity constant (Ki) was calculated using the Cheng-Prusoff equation Ki=(IC50/1+([L]/Kd), where [L] is the concentration of radioligand and Kd is the dissociation constant of the radioligand at the receptor as determined by the saturation isotherm.
Description for human D2 receptor: as §1, §2, §3, §4

For the compound `CC#CC(=O)N[C@H]1CC[C@H](CCN2CCN(c3nccc4c3OCC4)CC2)CC1` [Example 86, But-2-ynoic acid trans-(4-{2-[4-(2,3-dihydro-furo[2,3-c]pyridin-7-yl)-piperazin-1-yl]-ethyl}-cyclohexyl)-amide], the melting point worked out at 176 °C. Moreover, the affinity on human D2 receptor, expressed as Ki, was 434 nM. On human D3 receptor, this compound returned a Ki of 7.33 nM. This compound returned a Ki at human 5-HT2A receptor of 38.8 nM.
`C/C=C/CC(=O)N[C@H]1CC[C@H](CCN2CCN(c3nccc4c3OCC4)CC2)CC1` [Example 87, (E)-Pent-3-enoic acid trans-(4-{2-[4-(2,3-dihydro-furo[2,3-c]pyridin-7-yl)-piperazin-1-yl]-ethyl}-cyclohexyl)-amide] registered a melting point of 170 °C. On human D2 receptor, the affinity, expressed as Ki, was 939 nM. In addition, on human D3 receptor, the Ki amounted to 6.64 nM. The compound also showed a Ki at human 5-HT2A receptor of 73.6 nM.
For the compound `CC(C)=CC(=O)N[C@H]1CC[C@H](CCN2CCN(c3nccc4c3OCC4)CC2)CC1` [Example 88, 3-Methyl-but-2-enoic acid trans-(4-{2-[4-(2,3-dihydro-furo[2,3-c]pyridin-7-yl)-piperazin-1-yl]-ethyl}-cyclohexyl)-amide], the melting point was 183.5 °C. This compound also showed a Ki at human D2 receptor of 201 nM. Also, affinity at human D3 receptor was put at a Ki of 9.4 nM. The same compound displayed a Ki at human 5-HT2A receptor of 59.5 nM.
Compound `CC(C)(C)CC(=O)N[C@H]1CC[C@H](CCN2CCN(c3nccc4c3OCC4)CC2)CC1` [Example 89, trans-N-(4-{2-[4-(2,3-Dihydro-furo[2,3-c]pyridin-7-yl)-piperazin-1-yl]-ethyl}-cyclohexyl)-3,3-dimethyl-butyramide] returned a melting point of 193 °C. For the same compound, the Ki at human D2 receptor was determined as 435 nM. For the same compound, the affinity at human D3 receptor, expressed as Ki, was 15.1 nM. For the same compound, the Ki on human 5-HT2A receptor amounted to 58.8 nM.
As to `CC(C)(C)C(=O)N[C@H]1CC[C@H](CCN2CCN(c3nccc4c3OCC4)CC2)CC1` [Example 90, trans-N-(4-{2-[4-(2,3-Dihydro-furo[2,3-c]pyridin-7-yl)-piperazin-1-yl]-ethyl}-cyclohexyl)-2,2-dimethyl-propionamide], the melting point came out at 194.5 °C. Moreover, on human D2 receptor, the Ki stood at 671 nM. Also, the Ki at human D3 receptor was found to be 50.5 nM. The compound also returned a Ki on human 5-HT2A receptor of 48.9 nM.
`C[C@]1(O)CC[C@H](C(=O)N[C@H]2CC[C@H](CCN3CCN(c4nccc5c4OCC5)CC3)CC2)CC1` [Example 91, trans-4-Hydroxy-4-methyl-cyclohexanecarboxylic acid trans-(4-{2-[4-(2,3-dihydro-furo[2,3-c]pyridin-7-yl)-piperazin-1-yl]-ethyl}-cyclohexyl)-amide]: the melting point is 172.5 °C. The same compound yielded an inhibition constant (Ki) at human D2 receptor of 481 nM. In addition, at human D3 receptor, the Ki came out at 18.6 nM. At human 5-HT2A receptor, this compound returned a Ki of 32 nM.
For `CO[C@H]1CC[C@H](CC(=O)N[C@H]2CC[C@H](CCN3CCN(c4nccc5c4OCC5)CC3)CC2)CC1` [Example 92, trans-N-(4-{2-[4-(2,3-Dihydro-furo[2,3-c]pyridin-7-yl)-piperazin-1-yl]-ethyl}-cyclohexyl)-trans-2-(4-methoxy-cyclohexyl)-acetamide], the melting point was determined as 188.5 °C. Also, the affinity on human D2 receptor corresponds to a Ki of 1750 nM. At human D3 receptor, this compound returned a Ki of 12.2 nM. The affinity on human 5-HT2A receptor, expressed as Ki, was 53.3 nM.
Compound `C[C@]1(O)CC[C@@H](C(=O)N[C@H]2CC[C@H](CCN3CCN(c4nccc5c4OCC5)CC3)CC2)CC1` [Example 93, cis-4-Hydroxy-4-methyl-cyclohexanecarboxylic acid trans-(4-{2-[4-(2,3-dihydro-furo[2,3-c]pyridin-7-yl)-piperazin-1-yl]-ethyl}-cyclohexyl)-amide] registered a melting point of 219 °C. At human D2 receptor, this compound displayed a Ki of 832 nM. At human D3 receptor, this compound showed a Ki of 38.4 nM. On human 5-HT2A receptor, the Ki came out at 30.7 nM.
The corresponding values for `CN(C)C(=O)N[C@H]1CC[C@H](CCN2CCN(c3nccc4c3OCC4)CC2)CC1` [Example 94, trans-3-(4-{2-[4-(2,3-Dihydro-furo[2,3-c]pyridin-7-yl)-piperazin-1-yl]-ethyl}-cyclohexyl)-1,1-dimethyl-urea] are 217.5 °C, 429 nM, 82 nM and 135 nM.
